Data: patent publication US20030176500A1, “Medium chain fatty acids applicable as antimicrobial agents” (priority 2000, published 2003)

Test system: E. coli K88
Test: Control of E. coli K88 growth in Brain Heart Infusion broth (OD600nm)
Type: cell-based, Escherichia coli
Settings: colistine 12 ppm, sodium salt of MCFA 1200 ppm; for OD600nm: pH 4.0, 37° C., MCFA values higher by intrinsic turbidity
Experimental: Three samples of 100 ml of fermentation broth (Brain Heart Infusion) were equally inoculated with an overnight culture of E. coli K88 (pathogen in gastrointestinal tract of piglet) and further incubated at 37° C. The optical density at 600 nm (OD600nm)—which is proportional to the amount of E. coli cells present (FIG. 1)—was measured. As soon as an OD600nm of between 0.2 and 0.5 was obtained,
(1) nothing was added to the first sample,
(2) 12 ppm of colistine was added to the second sample and
(3) 1200 ppm of the sodium salt of MCFA (mixture containing 50% of fatty acid with 8 carbon atoms and 50% of fatty acid with 10 carbon atoms) was added to the third sample.
The samples were further incubated at 37° C. for 4 hours at pH 4.0. The OD600nm was measured evey hour. The samples were removed from the incubation after 4 hours, the pH was measured in order to register possible pH changes during incubation.

Work on colistine yielded an OD600nm (2 hours after pH setting) of 0.420, an OD600nm (3 hours after pH setting) of 0.449 and an OD600nm (4 hours after pH setting) of 0.455. The “Difference in OD600nm” value (between 2 and 4 hours) was 0.035, the Growth % (blank = 100) was 44% and the “growth of E. coli retarded” value (pH 4.0) was 56%.
